Laboratory results from US10947275B2, “Caged cell penetrating peptide-polymer conjugates for diagnostic and therapeutic applications” (Ben-Gurion University of the Negev Research and Development …, priority 2010, dated 2021).

What was measured:
[1] = tested on: PC-3 cells; experiment: Light-mediated cytotoxicity, MTT assay, illumination time and dose dependence; format: cell-based; conditions: 80 μM dose (or equivalent dose of M-(cCPP)-KLAK), 15 min of light illumination
Experimental: FIG. 6A depicts illumination time-dependence and dose-dependence of the viability of PC-3 cells incubated with 80 μM (solid blue), 40 μM (dashed blue), 20 μM (dots blue) M-(cCPP)-KLAK (KLAK equiv), 80 μM KLAK (solid green), and 80 μM M-(cCPP) (solid red), as determined by MIT assay. The results presented are the average of 3 independent experiments, in duplicates. Untreated control cells corresponded to 100% viability. FIG. 6B depicts light-induced cell cytotoxicity of polymer-KLAK conjugates and free KLAK against various cell-types including A431 cells (top left graph), PC-3 cells (top right graph), 3LL cells (bottom left graph) and SW480 cells (bottom right graph). Cells were incubated with 60 μM KLAK equivalent M-(cCPP)-KLAK (dark column), M-(cCPP) (gray column) or 60 μM KLAK (white column) and were illuminated immediately with UV light (365 nm) for 8 minutes followed by 2 hours incubation at 37° C. Cell viability was analyzed by MIT assay.
The cytotoxicity of M-cCPP-KLAK, M-cCPP and o(KIAKLAK) (SEQ ID NO: 5)2, was assessed using a modified 3-(4,5-dimethylthiazol-2-yl)-2,5-diphenyltetrazolinium bromide (MTT). All concentrations of KLAK-HPMA copolymers used for these experiments are expressed in KLAK equivalents. All solutions were sterilized by filtering through a 0.2-μm membrane filter. […] The absorbance of each sample was measured at 570 nm. […]

[2] = tested on: B16 cells; experiment: Caging of CPP activity via reversible electrostatic interactions with polyanions, flow cytometry; format: cell-based; conditions: for mean fluorescence intensity of HPMA-CPP-FITC after pre-treatment with polyanion (masking of CPP activity): polyanion mixed with HPMA-CPP-FITC for 10 min, versus conjugate alone
Experimental: FIG. 7A-FIG. 7D depict FACS analysis results of B-16 cells incubated with HPMA-CPP-FITC conjugate mixed with different polyanions (Hep, FI, PGA, HA, P-GG, LMWH, Amb) for 10 min, and then added to B16-cell monolayers. Control cells were treated with HPMA-CPP-FITC conjugate only. FIG. 7A depicts results of B-16 cells incubated with HPMA-CPP-FITC conjugate mixed with Hep or FI. FIG. 7B depicts results of B-16 cells incubated with HPMA-CPP-FITC conjugate mixed with PGA or HA. FIG. 7C depicts results of B-16 cells incubated with HPMA-CPP-FITC conjugate mixed with P-GG or LMWH. FIG. 7D depicts results of B-16 cells incubated with HPMA-CPP-FITC conjugate mixed with Amb.
FIG. 8A-FIG. 8D depict FACS analysis results of stability testing of HPMA-CPP-FITC polyanion complexes incubated with B-16 cells at different time points. FIG. 8A depicts results of B-16 cells incubated with a complex of HPMA-CPP-FITC and the polyanion Hep. FIG. 8B depicts results of B-16 cells incubated with a complex of HPMA-CPP-FITC and the polyanion FI. FIG. 8C depicts results of B-16 cells incubated with a complex of HPMA-CPP-FITC and the polyanion LMWH. FIG. 8D depicts results of B-16 cells incubated with a complex of HPMA-CPP-FITC and the polyanion Amb.
FIG. 9A-FIG. 9D depict the reversible masking of CPP activity by polyanion complexes via the addition of protamine. FIG. 9A depicts the reversible masking of CCP activity by polyanion complexes comprising the polyanion fucoidan via the addition or protamine. FIG. 9B depicts the reversible masking of CCP activity by polyanion complexes comprising the polyanion LMWH via the addition or protamine. FIG. 9C depicts the reversible masking of CCP activity by polyanion complexes comprising the polyanion Heparin via the addition or protamine. FIG. 9D depicts the reversible masking of CCP activity by polyanion complexes comprising the polyanion P-GG-OH via the addition or protamine.
FIG. 10 depicts FACS analysis results of polyanion release from HPMA-CPP-FITC complexes by protamine was at the following order: LMWH>P-GG100%>Fl>Hep.
HPMA-CPP-FITC conjugate was mixed with various polyanions such as Polyglutamic acid (PGA); Fucoidan (FI); Heparin sulfate (Hep) Hyaluronic acid (HA); Low molecular weight heparin (LMWH), Amberlite IR120 (Amb) or Polyglycylglycine (P-GG) at a weight ratio of 3:1 or 5:1 in PBS. The solutions were left for 10 min at room temperature to allow HPMA-CPP-FITC-polyanion complex formation, and then added to B16 cell monolayers in growth medium The reversibility of masking the CPP activity in complexes was assessed following the addition of the counter polycation, protamine to the incubation medium. B16 cells were treated with HPMA-CPP-FITC-polyanion complexes for 10 min, and then the counter polycation protamine (4.7 KDa, 10-50 μg/ml, at the same weight ratio of HPMA conjugate) was added to the cells. Control cells were treated with HPMA-CPP-FITC-polyanion complexes without protamin. After 1 h, the cells were washed with PBS, harvested with trypsin and the cell associated fluorescence was analyzed by flow cytometry.
HPMA-CPP-FITC conjugate was mixed with different polyanions (Hep, FI, PGA, HA, P-GG, LMWH, Amb) and then added to B16-cell monolayers and compared to control cells treated with HPMA-CPP-FITC conjugate alone (FIGS. 7A-7D).
The masking of CPP activity by the polyanion complexes was readily reversible following the addition of the polycation, protamine (4.7 KD) (FIGS. 9A-9D). Greater intensity is readily seen in protamine treated (black lines) versus untreated (gray lines) samples.
The efficiency of polyanion release from HPMA-CPP-FITC complexes by protamine was at the following order: LMWH>P-GG100%>FI>Hep (corresponding to outermost versus innermost graphs) (FIG. 10).

[3] = Uncaging kinetics of cCPP under UV illumination, HPLC; format: physicochemical; conditions: cCPP 200 μM, 8 minutes UV illumination (700 μW/cm2; λ=365 nm), HPLC-UV 230 nm
Experimental: FIG. 2 depicts the uncaging kinetics of cCPP as a function of light illumination time (365 nm) as determined with HPLC.
Uncaging kinetics of cCPP. cCPP (200 μM) was dissolved in 100 μL MOPS buffer at pH=7.4 and exposed to UV light illumination (UV lamp 6 W; =365 nm). Aliquots (30 μL) were removed at various time points, immediately kept frozen, in dark until analyzed by HPLC. The molar fraction of cCPP was calculated from its HPLC peak area.
CPP with 3 Mtt-protected Lys, Ac-KRRMK^MttWK^MttK^Mtt (KRRMKWKXK SEQ ID NO: 6) was synthesized on a solid phase via Fmoc chemistry on a MBHA Resin. CPP was then modified to include 3 photolabile protecting groups on Lys side chains to give the caged CPP (cCPP), Ac-KRRMK^NvocWK^NvocK^Nvoc. The identity and purity (>90%) were determined by HPLC and MALDI-TOF mass spectrometer. In order to study the uncaging kinetics of the peptide, a solution of cCPP (200 μM) was exposed to UV light illumination (700 μW/cm2; λ=365 nm). Aliquots were removed at various time points, and then evaluated by high performance liquid chromatography with UV detection (HPLC-UV) at 230 nm. The molar fraction of cCPP was calculated from its HPLC peak (FIG. 2). 8 minutes of illumination were sufficient to attain >80% of uncaged CPP, and thus further experiments were therefore undertaken with 8-10 min of light illumination. […]

Row | Substance | toxicity towards PC-3 cells [1] | mean fluorescence intensity of HPMA-CPP-FITC after pre-treatment with polyanion (masking of CPP activity) [2] | order of efficiency of polyanion release from HPMA-CPP-FITC complexes by protamine [2] | uncaged CPP attained [3] [%]
1 | Levulinic acid-D(KLAKLAK)2 | no significant toxicity | – | – | –
2 | Fucoidan [FI] | – | significantly reduced | LMWH>P-GG100%>FI>Hep | –
3 | Ac-KRRMK^NvocWK^NvocK^Nvoc [cCPP] | – | – | – | > 80
4 | Low molecular weight heparin [LMWH] | – | significantly reduced | LMWH>P-GG100%>FI>Hep | –
5 | Heparin sulfate | – | significantly reduced | LMWH>P-GG100%>FI>Hep | –
